Measurements as given in PubChem BioAssay AID330 (DTP/NCI, 2004).
“And” between values parts separate entries of the source, which are not always exact repeats. Identical values can stand only once. Toxic doses and inconclusive results are not listed.

System: P388 leukemia ip, CD2F1 mice, survival T/C
Experiment: NCI In Vivo Anticancer Drug Screen. Data for tumor model P388 Leukemia (intraperitoneal) in CD2F1 (CDF1) mice
Details: endpoint: median survival time, higher = longer survival
Outline: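 Mice carrying the transplanted tumor received test compound or vehicle. Survival was recorded in each group, and the value is the treated-group measurement divided by that of the vehicle-treated control group.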

[1] = dose: 60.0 mg/kg/injection, schedule: Q01DX005 (ip), vehicle: saline with Tween-80
[2] = dose: 120.0 mg/kg/injection, schedule: Q01DX005 (ip), vehicle: saline with Tween-80
[3] = dose: 50.0 mg/kg/injection, schedule: Q01DX005 (ip), vehicle: Klucel (hydroxypropylcellulose) (HPC)
[4] = dose: 100.0 mg/kg/injection, schedule: Q01DX005 (ip), vehicle: Klucel (hydroxypropylcellulose) (HPC)
[5] = dose: 200.0 mg/kg/injection, schedule: Q01DX005 (ip), vehicle: Klucel (hydroxypropylcellulose) (HPC)
[6] = dose: 50.0 mg/kg/injection, schedule: Q01DX009 (ip), vehicle: Klucel (hydroxypropylcellulose) (HPC)
[7] = dose: 100.0 mg/kg/injection, schedule: Q01DX009 (ip), vehicle: Klucel (hydroxypropylcellulose) (HPC)
[8] = dose: 200.0 mg/kg/injection, schedule: Q01DX009 (ip), vehicle: Klucel (hydroxypropylcellulose) (HPC)
[9] = dose: 12.5 mg/kg/injection, schedule: Q01DX005 (ip), vehicle: saline with Tween-80

For `CC1(C)COP(=O)(c2ccccc2)N1` (stereo not given), the T/C [1] was 103 % of control, the T/C [2] was 107 % of control and the T/C (dose: 240.0 mg/kg/injection, schedule: Q01DX005 (ip), vehicle: saline with Tween-80) was 101 % of control.
`O=C(O)C1CCN1` (stereo not given) was tested, and the T/C (dose: 100.0 mg/kg/injection, schedule: Q01DX009 (ip), vehicle: saline) was 93 % of control, the T/C (dose: 200.0 mg/kg/injection, schedule: Q01DX009 (ip), vehicle: saline) was 86 % of control and the T/C (dose: 300.0 mg/kg/injection, schedule: Q01DX009 (ip), vehicle: saline) was 86 % of control.
For `CC1CC(=O)Nc2cc(C(F)(F)F)ccc2N1` (stereo not given), the T/C [3] was 95 % of control, the T/C [4] was 99 % of control and the T/C [5] was 93 % of control.
`CCOC(=O)/C(C#N)=C1/CCCN1C` was tested, and the T/C (dose: 100.0 mg/kg/injection, schedule: Q04DX003 (ip), vehicle: Klucel (hydroxypropylcellulose) (HPC)) was 107 % of control and the T/C (dose: 200.0 mg/kg/injection, schedule: Q04DX003 (ip), vehicle: Klucel (hydroxypropylcellulose) (HPC)) was 109 % of control.
In the case of `N#CSc1c(-c2ccccc2)c2c(N)[nH]c(=O)nc2[nH]c1=O`, the T/C (dose: 15.0 mg/kg/injection, schedule: Q01DX005 (ip), vehicle: saline with Tween-80) is reported as 107 % of control, the T/C (dose: 30.0 mg/kg/injection, schedule: Q01DX005 (ip), vehicle: saline with Tween-80) is reported as 99 % of control and the T/C [1] is reported as 90 % of control.
For `O=C(C[n+]1cccc2ccccc21)c1ccc(F)cc1`, the T/C [6] was 119 % of control, the T/C [7] was 97 % of control and the T/C [8] was 91 % of control.
With `CCN(CC)Cc1cc(C)c(O)c(N=Nc2ccc3c4c(cccc24)-c2ccccc2-3)c1C` the T/C (dose: 50.0 mg/kg/injection, schedule: Q01DX009 (ip), vehicle: saline with Tween-80) was 90 % of control, the T/C (dose: 100.0 mg/kg/injection, schedule: Q01DX009 (ip), vehicle: saline with Tween-80) was 93 % of control and the T/C (dose: 200.0 mg/kg/injection, schedule: Q01DX009 (ip), vehicle: saline with Tween-80) was 89 % of control.
`O=c1[nH]cn[nH]1` was tested, and the T/C (dose: 50.0 mg/kg/injection, schedule: Q01DX005 (ip), vehicle: saline) was 101 % of control, the T/C (dose: 100.0 mg/kg/injection, schedule: Q01DX005 (ip), vehicle: saline) was 98 % of control and the T/C (dose: 200.0 mg/kg/injection, schedule: Q01DX005 (ip), vehicle: saline) was 95 % of control.
`COC(/C=N/OC(C)=O)c1ccccc1` (stereo not given) was tested, and the T/C (dose: 25.0 mg/kg/injection, schedule: Q04DX003 (ip), vehicle: saline with Tween-80) was 98 % of control and 99 % of control and the T/C (dose: 50.0 mg/kg/injection, schedule: Q04DX003 (ip), vehicle: saline with Tween-80) was 102 % of control and 92 % of control.
In the case of `CS(=O)(=O)CC#N`, the T/C (dose: 7.5 mg/kg/injection, schedule: Q01DX005 (ip), vehicle: saline) is reported as 96 % of control, the T/C (dose: 15.0 mg/kg/injection, schedule: Q01DX005 (ip), vehicle: saline) is reported as 100 % of control and the T/C (dose: 30.0 mg/kg/injection, schedule: Q01DX005 (ip), vehicle: saline) is reported as 95 % of control.
`C=CCC1C=CC=CN1C(=O)OCC` (stereo not given) was tested, and the T/C (dose: 60.0 mg/kg/injection, schedule: Q01DX005 (ip), vehicle: saline) was 113 % of control, the T/C (dose: 120.0 mg/kg/injection, schedule: Q01DX005 (ip), vehicle: saline) was 113 % of control and the T/C (dose: 240.0 mg/kg/injection, schedule: Q01DX005 (ip), vehicle: saline) was 98 % of control.
In the case of `COc1cc(/C=C/c2cc(OC)c(OC)c(OC)c2)oc(=O)c1`, the T/C [6] is reported as 98 % of control, the T/C [7] is reported as 104 % of control and the T/C [8] is reported as 99 % of control.
With `CCc1ncc(C(O)c2ccc(Cl)cc2)n1Cc1ccccc1` (stereo not given) the T/C (dose: 60.0 mg/kg/injection, schedule: Q01DX005 (ip), vehicle: Klucel (hydroxypropylcellulose) (HPC)) was 93 % of control, the T/C (dose: 120.0 mg/kg/injection, schedule: Q01DX005 (ip), vehicle: Klucel (hydroxypropylcellulose) (HPC)) was 93 % of control and the T/C (dose: 240.0 mg/kg/injection, schedule: Q01DX005 (ip), vehicle: Klucel (hydroxypropylcellulose) (HPC)) was 90 % of control.
In the case of `CC1=C[C@H]2C[C@]3(C)CC[C@H]4[C@H](C)C(=O)O[C@@H]4[C@@]13OO2`, the T/C (dose: 0.75 mg/kg/injection, schedule: Q01DX005 (ip), vehicle: Klucel (hydroxypropylcellulose) (HPC)) is reported as 107 % of control, the T/C (dose: 1.5 mg/kg/injection, schedule: Q01DX005 (ip), vehicle: Klucel (hydroxypropylcellulose) (HPC)) is reported as 103 % of control and the T/C (dose: 3.0 mg/kg/injection, schedule: Q01DX005 (ip), vehicle: Klucel (hydroxypropylcellulose) (HPC)) is reported as 90 % of control. For the same compound, the T/C (dose: 6.0 mg/kg/injection, schedule: Q01DX005 (ip), vehicle: Klucel (hydroxypropylcellulose) (HPC)) was 111 % of control.
`O=S(=O)(CCl)OCCF` was tested, and the T/C (dose: 1.56 mg/kg/injection, schedule: Q01DX009 (ip), vehicle: saline with Tween-80) was 110 % of control, the T/C (dose: 3.12 mg/kg/injection, schedule: Q01DX009 (ip), vehicle: saline with Tween-80) was 102 % of control and the T/C (dose: 6.25 mg/kg/injection, schedule: Q01DX009 (ip), vehicle: saline with Tween-80) was 105 % of control and 117 % of control.
`CCOC(=O)C1=C(C)OC(N)=C(C#N)C12C(=O)N(C)C(=O)c1ccccc12` (stereo not given) was tested, and the T/C [3] was 101 % of control, the T/C [4] was 103 % of control and the T/C [5] was 96 % of control.
For `Cn1c(=O)c2nc(-c3cccnc3)cnc2n(C)c1=O`, the T/C (dose: 100.0 mg/kg/injection, schedule: Q01DX001 (ip), vehicle: Klucel (hydroxypropylcellulose) (HPC)) was 105 % of control, the T/C (dose: 200.0 mg/kg/injection, schedule: Q01DX001 (ip), vehicle: Klucel (hydroxypropylcellulose) (HPC)) was 105 % of control and the T/C (dose: 400.0 mg/kg/injection, schedule: Q01DX001 (ip), vehicle: Klucel (hydroxypropylcellulose) (HPC)) was 105 % of control.
With `CCN(CC)C(C)(C)C(=O)/C=C/c1ccc(C)cc1` the T/C [1] was 107 % of control and the T/C [2] was 103 % of control.
In the case of `FC(F)(F)c1ccc(Cl)c(N=Cc2ccc(C=Nc3cc(C(F)(F)F)ccc3Cl)cc2)c1`, the T/C [6] is reported as 91 % of control and the T/C [7] is reported as 98 % of control.
With `C/C(=N\NC(=S)N1CCSCC1)c1ccccn1` the T/C (dose: 6.25 mg/kg/injection, schedule: Q01DX005 (ip), vehicle: saline with Tween-80) was 113 % of control and the T/C [9] was 91 % of control.
With `CN1CCN(c2ccc([N+](=O)[O-])c3no[n+]([O-])c23)CC1` the T/C (dose: 2.5 mg/kg/injection, schedule: Q01DX009 (ip), vehicle: saline) was 116 % of control and the T/C (dose: 20.0 mg/kg/injection, schedule: Q01DX009 (ip), vehicle: saline) was 152 % of control.
`COc1ccc(CC(NC(=O)NSc2ccccc2)C(=O)NC2C(CO)OC(n3cnc4c(N(C)C)ncnc43)C2O)cc1` (stereo not given) was tested, and the T/C [9] was 90 % of control, the T/C (dose: 25.0 mg/kg/injection, schedule: Q01DX005 (ip), vehicle: saline with Tween-80) was 93 % of control and the T/C (dose: 50.0 mg/kg/injection, schedule: Q01DX005 (ip), vehicle: saline with Tween-80) was 88 % of control and 91 % of control.
In the case of `CCOC(=O)C1C(CCC#N)C(=O)CCC1(C#N)c1ccccc1` (stereo not given), the T/C (dose: 100.0 mg/kg/injection, schedule: Q01DX001 (ip), vehicle: saline) is reported as 105 % of control, the T/C (dose: 200.0 mg/kg/injection, schedule: Q01DX001 (ip), vehicle: saline) is reported as 100 % of control and the T/C (dose: 400.0 mg/kg/injection, schedule: Q01DX001 (ip), vehicle: saline) is reported as 105 % of control.
In the case of `Oc1cc2c(cc1C/C=C/c1ccccc1)OCO2`, the T/C (dose: 2.5 mg/kg/injection, schedule: Q01DX009 (ip), vehicle: saline with Tween-80) is reported as 101 % of control, the T/C (dose: 5.0 mg/kg/injection, schedule: Q01DX009 (ip), vehicle: saline with Tween-80) is reported as 103 % of control and the T/C (dose: 10.0 mg/kg/injection, schedule: Q01DX009 (ip), vehicle: saline with Tween-80) is reported as 101 % of control.
`O=C1OCCC1C(=O)C(O)(C(F)(F)F)C(F)(F)F` (stereo not given) was tested, and the T/C (dose: 50.0 mg/kg/injection, schedule: Q01DX001 (ip), vehicle: other) was 100 % of control, the T/C (dose: 100.0 mg/kg/injection, schedule: Q01DX001 (ip), vehicle: other) was 95 % of control and the T/C (dose: 200.0 mg/kg/injection, schedule: Q01DX001 (ip), vehicle: other) was 91 % of control.
With `C=Cc1c2[n-]c(c1C)/C=C1\[N-]/C(=C3\c4[n-]c(c(C)c4C(=O)C3C(=O)O)/C=c3\[n-]/c(c(C)c3CC)=C\2)C(CCC(=O)O)C1C.[Pt+4]` (stereo not given) the T/C (dose: 50.0 mg/kg/injection, schedule: Q04DX002 (ip), vehicle: saline) was 100 % of control, the T/C (dose: 100.0 mg/kg/injection, schedule: Q04DX002 (ip), vehicle: saline) was 90 % of control and the T/C (dose: 200.0 mg/kg/injection, schedule: Q04DX002 (ip), vehicle: saline) was 88 % of control.
`Cc1nnc2c([Se])nccn12` was tested, and the T/C (dose: 100.0 mg/kg/injection, schedule: Q01DX001 (ip), vehicle: saline with Tween-80) was 99 % of control and the T/C (dose: 200.0 mg/kg/injection, schedule: Q01DX001 (ip), vehicle: saline with Tween-80) was 93 % of control.
